This passage reports IC50 results from patent US9403830B2, “Inhibitors of leukotriene production” (Boehringer Ingelheim International GmbH, priority 2012, dated 2016).

One assay concerns the target T1, human LTA4 hydrolase (Homo sapiens, UniProt P09960).
T1 sequence (P09960 1-611): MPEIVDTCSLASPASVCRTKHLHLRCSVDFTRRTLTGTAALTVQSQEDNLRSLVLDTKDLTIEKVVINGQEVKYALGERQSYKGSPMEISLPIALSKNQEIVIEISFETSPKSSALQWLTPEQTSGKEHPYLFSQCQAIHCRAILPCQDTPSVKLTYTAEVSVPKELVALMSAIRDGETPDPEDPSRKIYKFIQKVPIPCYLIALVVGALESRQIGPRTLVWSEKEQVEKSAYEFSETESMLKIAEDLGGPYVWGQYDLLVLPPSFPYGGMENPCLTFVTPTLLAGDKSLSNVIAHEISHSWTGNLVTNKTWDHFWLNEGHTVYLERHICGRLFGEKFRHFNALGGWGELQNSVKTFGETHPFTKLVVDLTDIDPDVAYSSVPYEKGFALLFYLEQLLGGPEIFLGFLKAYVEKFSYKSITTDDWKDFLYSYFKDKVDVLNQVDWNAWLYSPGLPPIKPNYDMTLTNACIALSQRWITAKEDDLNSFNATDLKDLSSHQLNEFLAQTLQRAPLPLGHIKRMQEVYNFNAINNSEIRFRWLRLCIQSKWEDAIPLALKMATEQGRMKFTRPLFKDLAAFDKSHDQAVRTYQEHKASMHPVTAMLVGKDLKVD
Nature of the assay: LTA4H Enzyme assay (peptidase, Arg-AMC cleavage). Format: biochemical. The conditions noted are these: LTA4H enzyme 1 nM, Arg-AMC substrate 50 μM, room temperature 1 h, fluorescence 380/460 nm. Put shortly:
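Human LTA4H (1 nM final) incubated with compound and Arg-AMC (50 μM final) in 50 mM Tris-HCl pH 7.5, 100 mM KCl, 0.5% BSA, 1 h at room temperature. Product read as AMC fluorescence (ex 380/em 460 nm); IC50 reported.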

The subject of assay [1] is LTB4 synthesis in human whole blood. The experiment in a line: human whole blood (HWB) assay, inhibition of LTB4 production. Format: cell-based. The conditions noted are these: heparinized human whole blood, calcimycin 20 μM stimulation, plasma LTB4. In outline:
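Plasma LTB4, quantified by HTRF immunoassay, is the read-out after calcimycin challenge (20 μM final, 30 min, 37 °C) of heparinized whole blood that had been pretreated with compound for 15 min at 37 °C; values given as IC50.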

Consider `C[C@H](O)C(=O)N1CCN(Cc2ccc3cc(Oc4ccc(-c5ccn[nH]5)cc4)ccc3n2)CC1` [Example 13, (S)-2-hydroxy-1-(4-{6-[4-(2H-pyrazol-3-yl)-phenoxy]-quinolin-2-ylmethyl}-piperazin-1-yl)-propan-1-one], for which the IC50 is 0.59 nM against human LTA4 hydrolase and 200 nM in assay [1].

`CC(=O)NC1CCN(Cc2ccc3cc(Oc4ccc(-c5cc[nH]n5)cn4)ccc3n2)CC1` [Example 237, N-(1-{6-[5-(1H-Pyrazol-3-yl)-pyridin-2-yloxy]-quinolin-2-ylmethyl}-piperidin-4-yl)-acetamide]: the IC50 came out at 0.84 nM against human LTA4 hydrolase and 210 nM in assay [1].

For the compound `O=S1(=O)CCN(Cc2ccc3cc(Oc4ccc(-c5cc[nH]n5)cn4)ccc3n2)CC1` [Example 242, 2-(1,1-Dioxo-1-λ-6-thiomorpholin-4-ylmethyl)-6-[5-(1H-pyrazol-3-yl)-pyridin-2-yloxy]-quinoline], the IC50 came out at 1.6 nM against human LTA4 hydrolase and 210 nM in assay [1].

For `CC(C)(O)C(=O)NC1CCN(CCn2cc3cc(Oc4ccc(-c5ccn[nH]5)cn4)ccc3n2)CC1` [Example 112, 2-Hydroxy-2-methyl-N-[1-(2-{5-[5-(2H-pyrazol-3-yl)-pyridin-2-yloxy]-indazol-2-yl}-ethyl)-piperidin-4-yl]-propionamide], the IC50 at human LTA4 hydrolase worked out at 2.1 nM; in assay [1], 280 nM.

Regarding `CC(=O)N1CCN(CCn2ccc3cc(Oc4ccc(-c5ccn[nH]5)cn4)ccc32)CC1` [Example 224, 1-[4-(2-{5-[5-(2H-Pyrazol-3-yl)-pyridin-2-yloxy]-indol-1-yl}-ethyl)-piperazin-1-yl]-ethanone], the values for the IC50 (against human LTA4 hydrolase; in assay [1]) were 2.3 nM and 540 nM, respectively.

As to `O=C1NCC[C@@H]1NCc1ccc2cc(Oc3ccc(-c4ccn[nH]4)cn3)ccc2n1` [Example 49, (S)-3-({6-[5-(2H-Pyrazol-3-yl)-pyridin-2-yloxy]-quinolin-2-ylmethyl}-amino)-pyrrolidin-2-one], the IC50 against human LTA4 hydrolase came out at 8.9 nM; in assay [1] it was 860 nM.

Turning to `CC(=O)N1CCN(Cc2cc3ccc(Oc4ccc(-c5ccn[nH]5)cn4)cc3[nH]2)CC1` [Example 221, 1-(4-{6-[5-(2H-Pyrazol-3-yl)-pyridin-2-yloxy]-1H-indol-2-ylmethyl}-piperazin-1-yl)-ethanone], the IC50 came to 0.27 nM on human LTA4 hydrolase and 170 nM in assay [1].

Take `NC(=O)[C@@H](NCc1ccc2cc(Oc3ccc(-c4ccn[nH]4)cn3)ccc2n1)c1ccccc1` [Example 51, (S)-2-Phenyl-2-({6-[5-(2H-pyrazol-3-yl)-pyridin-2-yloxy]-quinolin-2-ylmethyl}-amino)-acetamide]: the IC50 against human LTA4 hydrolase came to 8.1 nM; in assay [1], 2200 nM.

Turning to `CCN(Cc1nc2cc(Oc3ccc(-c4ccn[nH]4)cc3)ccc2[nH]1)C(=O)C1CC1` [Example 235, Cyclopropanecarboxylic acid ethyl-{5-[4-(2H-pyrazol-3-yl)-phenoxy}-1H-benzoimidazol-2-ylmethyl}-amide], the IC50 is 0.43 nM at human LTA4 hydrolase and 180 nM in assay [1].

`CN(C)CC1CCc2cc(Oc3ccc(-c4ccn[nH]4)cc3)ccc2O1` (stereo not drawn) [Example 8, dimethyl-{6-[4-(2H-pyrazol-3-yl)-phenoxy]-chroman-2-ylmethyl}-amine]: the IC50 against human LTA4 hydrolase was found to be 0.35 nM; in assay [1], 99 nM.

Turning to `CC(=O)N1C[C@H]2C[C@@H]1CN2Cc1ccc2cc(Oc3ccc(-c4ccn[nH]4)cn3)ccc2n1` [Example 147, 1-((1R,4R)-5-{6-[5-(2H-Pyrazol-3-yl)-pyridin-2-yloxy]-quinolin-2-ylmethyl}-2,5-diaza-bicyclo[2.2.1]hept-2-yl)-ethanone], the IC50 against human LTA4 hydrolase amounted to 0.48 nM; in assay [1], 160 nM.

For `CC(=O)N1CCN(CCc2coc3cc(Oc4ccc(-c5ccn[nH]5)cn4)ccc23)CC1` [Example 136, 1-[4-(2-{6-[5-(2H-Pyrazol-3-yl)-pyridin-2-yloxy]-benzofuran-3-yl}-ethyl)-piperazin-1-yl]-ethanone], the IC50 at human LTA4 hydrolase was determined as 0.63 nM; in assay [1] it was 190 nM.

For the compound `COC[C@H](C)N(C)Cc1nc2cc(Oc3ccc(-c4ccn[nH]4)cc3)ccc2[nH]1` [Example 82, ((S)-2-Methoxy-1-methyl-ethyl)-methyl-{5-[4-(2H-pyrazol-3-yl)-phenoxy]-1H-benzoimidazol-2-ylmethyl}-amine], the IC50 against human LTA4 hydrolase is 0.077 nM; in assay [1], 110 nM.

`c1cc(-c2ccc(Oc3ccc4[nH]c(CNC5CCCC5)nc4c3)cc2)[nH]n1` [Example 188, Cyclopentyl-{5-[4-(2H-pyrazol-3-yl)-phenoxy]-1H-benzoimidazol-2-ylmethyl}-amine]: the IC50 against human LTA4 hydrolase was found to be 0.13 nM; in assay [1] it was 160 nM.

On to `CC1CCN(Cc2nc3cc(Oc4ccc(-c5ccn[nH]5)cc4)ccc3[nH]2)CC1` [Example 153, 2-(4-Methyl-piperidin-1-ylmethyl)-5-[4-(2H-pyrazol-3-yl)-phenoxy]-1H-benzoimidazole], for which the IC50 against human LTA4 hydrolase is 0.17 nM; in assay [1] it was 89 nM.

`COC1CCN(Cc2nc3cc(Oc4ccc(-c5ccn[nH]5)cc4)ccc3[nH]2)C1` (stereo not drawn) [Example 157, 2-(3-Methoxy-pyrrolidin-1-ylmethyl)-5-[4-(2H-pyrazol-3-yl)-phenoxy]-1H-benzoimidazole]: the IC50 on human LTA4 hydrolase was determined as 0.11 nM; in assay [1], 98 nM.

Consider `C[C@@H]1CN(Cc2nc3cc(Oc4ccc(-c5ccn[nH]5)cc4)ccc3[nH]2)C[C@H](C)O1` [Example 53, 2-((2R,6S)-2,6-Dimethyl-morpholin-4-ylmethyl)-5-[4-(2H-pyrazol-3-yl)-phenoxy]-1H-benzoimidazole], for which the IC50 against human LTA4 hydrolase was found to be 0.096 nM; in assay [1] it was 67 nM.

Regarding `CC(=O)N1CCN(Cc2cc3cc(Oc4ccc(-c5ccn[nH]5)cn4)ccc3cn2)CC1` [Example 223, 1-(4-{6-[5-(2H-Pyrazol-3-yl)-pyridin-2-yloxy]-isoquinolin-3-ylmethyl}-piperazin-1-yl)-ethanone], the IC50 was determined as 0.94 nM against human LTA4 hydrolase and 230 nM in assay [1].

With `c1cc(-c2ccc(Oc3ccc4[nH]c(CN[C@H]5CCOC5)nc4c3)cc2)[nH]n1` [Example 194, {5-[4-(2H-Pyrazol-3-yl)-phenoxy]-1H-benzoimidazol-2-ylmethyl}-(S)-tetrahydro-furan-3-yl-amine], the IC50 against human LTA4 hydrolase came to 0.18 nM; in assay [1], 180 nM.

Regarding `OC1CCN(Cc2ccc3cc(Oc4ccc(-c5ccn[nH]5)cn4)ccc3n2)CC1` [Example 204, 1-{6-[5-(2H-Pyrazol-3-yl)-pyridin-2-yloxy]-quinolin-2-ylmethyl}-piperidin-4-ol], the IC50 is 0.98 nM against human LTA4 hydrolase and 210 nM in assay [1].

For the compound `O=C(CO)N1C[C@H]2C[C@@H]1CN2Cc1ccc2cc(Oc3ccc(-c4ccn[nH]4)cn3)ccc2n1` [Example 145, 2-Hydroxy-1-((1R,4R)-5-{6-[5-(2H-pyrazol-3-yl)-pyridin-2-yloxy]-quinolin-2-ylmethyl}-2,5-diaza-bicyclo[2.2.1]hept-2-yl)-ethanone], the IC50 at human LTA4 hydrolase came to 0.4 nM; in assay [1] it was 210 nM.

Turning to `CC(=O)NC1CCN(Cc2ccc3cc(Oc4ccc(-c5ccn[nH]5)cn4)ccc3c2)CC1` [Example 6, N-(1-{6-[5-(2H-Pyrazol-3-yl)-pyridin-2-yloxy]-naphthalen-2-ylmethyl}-piperidin-4-yl)-acetamide], the IC50 against human LTA4 hydrolase was 0.37 nM; in assay [1], 210 nM.

Turning to `c1cc(-c2ccc(Oc3ccc4c(c3)OC(CN3CCCC3)C4)nc2)[nH]n1` (stereo not drawn) [Example 126, 5-(2H-Pyrazol-3-yl)-2-(2-pyrrolidin-1-ylmethyl-2,3-dihydro-benzofuran-6-yloxy)-pyridine], the IC50 amounted to 0.51 nM at human LTA4 hydrolase and 110 nM in assay [1].

With `CCC(=O)N1CCN(Cc2ccc3cc(Oc4ccc(-c5ccn[nH]5)cn4)ccc3n2)CC1` [Example 29, 1-(4-{6-[5-(2H-Pyrazol-3-yl)-pyridin-2-yloxy]-quinolin-2-ylmethyl}-piperazin-1-yl)-propan-1-one], the figures for the IC50 (against human LTA4 hydrolase; in assay [1]) were 0.66 nM and 190 nM, respectively.

For the compound `CCCN(CCO)Cc1nc2cc(Oc3ccc(-c4ccn[nH]4)cc3)ccc2[nH]1` [Example 199, 2-(Propyl-{5-[4-(2H-pyrazol-3-yl)-phenoxy]-1H-benzoimidazol-2-ylmethyl}-amino)-ethanol], the IC50 at human LTA4 hydrolase was 0.13 nM; in assay [1], 190 nM.

In the case of `O=c1cccc2n1C[C@H]1C[C@@H]2CN(Cc2ccc3cc(Oc4ccc(-c5ccn[nH]5)cn4)ccc3n2)C1` [Example 213, (1R,5S)-3-{6-[5-(2H-Pyrazol-3-yl)-pyridin-2-yloxy]-quinolin-2-ylmethyl}-1,2,3,4,5,6-hexahydro-1,5-methano-pyrido[1,2-a][1,5]diazocin-8-one], the IC50 was 0.77 nM on human LTA4 hydrolase and 390 nM in assay [1].

Regarding `CCN(C)CCn1cc2cc(Oc3ccc(-c4ccn[nH]4)cc3)ccc2n1` [Example 154, Ethyl-methyl-(2-{5-[4-(2H-pyrazol-3-yl)-phenoxy]-indazol-2-yl}-ethyl)-amine], the IC50 was determined as 0.19 nM at human LTA4 hydrolase and 95 nM in assay [1].

Broadly, the IC50 is the midpoint of a concentration-inhibition curve.
